Patent publication US4826982A, “Quinolonecarboxylic acid derivatives” (Kyorin Pharmaceutical Co., Ltd., priority 1985, dated 1989)
Values after ≈ are worked out from the molar mass of the structure shown.

Key:
Pst. micros UPI 5464-1 = assay: Antibacterial spectrum, MIC; conditions: Parvimonas micra, UPI54641
[1] = test system: S. aureus IID 670 (Terajima); assay: Antibacterial spectrum, MIC; format: cell-based; conditions: Staphylococcus aureus, IID670; 10^6 cells/ml; Gram +; standard strain
From the text: (§1) In vitro antibacterial activity (standard strains)
(§2) Organism (10^6 cells/ml)

[2] = test system: Staphylococcus aureus 209 P; assay: Antibacterial spectrum, MIC; format: cell-based; conditions: 10^6 cells/ml, Gram +, standard strain
From the text: as §1, §2

S. epidermidis IID 866 = assay: Antibacterial spectrum, MIC; format: cell-based; conditions: Staphylococcus epidermidis, IID866; 10^6 cells/ml; Gram +; standard strain
From the text: as §1, §2

[3] = test system: Proteus vulgaris IFO 3167; assay: Antibacterial spectrum, MIC; format: cell-based; conditions: IFO3167, 10^6 cells/ml, Gram -, standard strain
From the text: as §1, §2

[4] = test system: Klebsiella pneumoniae KY(GN)6445; assay: Antibacterial spectrum, MIC; format: cell-based; conditions: 10^6 cells/ml, Gram -, standard strain
From the text: as §1, §2

[5] = test system: Acinetobacter anitratus IID 876; assay: Antibacterial spectrum, MIC; format: cell-based; conditions: Acinetobacter calcoaceticus, IID876; 10^6 cells/ml; Gram -; standard strain
From the text: as §1, §2

P. mirabilis IID 994 = assay: Antibacterial spectrum, MIC; format: cell-based; conditions: Proteus mirabilis, IID994; 10^6 cells/ml; Gram -; standard strain
From the text: as §1, §2

[6] = test system: Salmonella enteritidis IID 604; assay: Antibacterial spectrum, MIC; format: cell-based; conditions: Salmonella enterica; 10^6 cells/ml; Gram -; standard strain
From the text: as §1, §2

B. distasonis 8503 = assay: Antibacterial spectrum, MIC; format: cell-based; conditions: Parabacteroides distasonis, 10^6 cells/ml, Gram -, standard strain
From the text: as §1, §2

E. faecalis IID 682 = assay: Antibacterial spectrum, MIC; format: cell-based; conditions: Enterococcus faecalis, IID682; 10^6 cells/ml; Gram +; standard strain
From the text: as §1, §2

[7] = test system: Enterobacter cloacae IID 977; assay: Antibacterial spectrum, MIC; format: cell-based; conditions: IID977, 10^6 cells/ml, Gram -, standard strain
From the text: as §1, §2

[8] = test system: Citrobacter freundii IID 976; assay: Antibacterial spectrum, MIC; format: cell-based; conditions: IID976, 10^6 cells/ml, Gram -, standard strain
From the text: as §1, §2

B. fragilis 25285 = assay: Antibacterial spectrum, MIC; format: cell-based; conditions: Bacteroides fragilis, 10^6 cells/ml, Gram -, standard strain
From the text: as §1, §2

[9] = test system: Serratia marcescens IID 618; assay: Antibacterial spectrum, MIC; format: cell-based; conditions: IID618, 10^6 cells/ml, Gram -, standard strain
From the text: as §1, §2

B. fragilis 0558 = assay: Antibacterial spectrum, MIC; format: cell-based; conditions: Bacteroides fragilis, 10^6 cells/ml, Gram -, standard strain
From the text: as §1, §2

[10] = test system: Streptococcus pyogenes (S-8); assay: Antibacterial spectrum, MIC; format: cell-based; conditions: 10^6 cells/ml, Gram +, standard strain
From the text: as §1, §2

[11] = test system: Escherichia coli NIHJ JC-2; assay: Antibacterial spectrum, MIC; format: cell-based; conditions: NIHJJC2, 10^6 cells/ml, Gram -, standard strain
From the text: as §1, §2

Shigella sonnei IID 969 = assay: Antibacterial spectrum, MIC; format: cell-based; conditions: IID969, 10^6 cells/ml, Gram -, standard strain
From the text: as §1, §2

K. pneumoniae 1-220S = assay: Antibacterial spectrum, MIC; format: cell-based; conditions: Klebsiella pneumoniae, 1220S; 10^6 cells/ml; Gram -; standard strain
From the text: as §1, §2

[12] = test system: Fusobacterium necrophorum S-45; assay: Antibacterial spectrum, MIC; format: cell-based; conditions: S45, 10^6 cells/ml, Gram -, standard strain
From the text: as §1, §2

S. pneumoniae IID 552 = assay: Antibacterial spectrum, MIC; format: cell-based; conditions: Streptococcus pneumoniae, IID552; 10^6 cells/ml; Gram +; standard strain
From the text: as §1, §2

E. coli ATCC l0536 = assay: Antibacterial spectrum, MIC; format: cell-based; conditions: Escherichia coli, ATCCL0536
From the text: as §1, §2

[13] = test system: Alcaligenes faecalis 0114002; assay: Antibacterial spectrum, MIC; format: cell-based; conditions: 10^6 cells/ml, Gram -, standard strain
From the text: as §1, §2

[14] = test system: Peptostreptococcus anaerobius KYA 27337; assay: Antibacterial spectrum, MIC; format: cell-based; conditions: KYA27337, 10^6 cells/ml, Gram +, standard strain, read-out: MIC
S. pyogenes IID 692 = assay: microbe, parasite or virus in culture; conditions: Streptococcus pyogenes, IID692
[15] = test system: Yersinia enterocolitica IID 981; assay: microbe, parasite or virus in culture; format: cell-based; conditions: IID981
P. aeruginosa IFO 12689 = assay: microbe, parasite or virus in culture; conditions: Pseudomonas aeruginosa, IFO12689
[16] = test system: B. thetaiotaomicron (0661); assay: Antibacterial spectrum, MIC; format: cell-based; conditions: Bacteroides thetaiotaomicron; 10^6 cells/ml; Gram -; standard strain; read-out: MIC
[17] = test system: Propionibacterium acens 11828; assay: Antibacterial spectrum, MIC; format: cell-based; conditions: 10^6 cells/ml, Gram +, standard strain, read-out: MIC
[18] = test system: Peptococcus magnus KY 017; assay: microbe, parasite or virus in culture; conditions: Finegoldia magna, KY017
C. ramosum = assay: Antibacterial spectrum, MIC; format: cell-based; conditions: Thomasclavelia ramosa; 10^6 cells/ml; Gram +; standard strain; read-out: MIC
[19] = test system: Eubacterium lentum GAI 5242; assay: microbe, parasite or virus in culture; conditions: Eggerthella lenta, GAI5242
[20] = test system: Veillonella parvula KYA 10790; assay: Antibacterial spectrum, MIC; conditions: KYA10790
[21] = test system: Morganella morganii IID 602; assay: Antibacterial spectrum, MIC; format: cell-based; conditions: IID602
F. varium KYA 8501 = assay: Antibacterial spectrum, MIC; format: cell-based; conditions: Fusobacterium varium, KYA8501
[22] = test system: Bacillus subtilis PCI 219; assay: Antibacterial spectrum, MIC by method recommended by Japan Society of Chemotherapy; format: cell-based; conditions: PCI219, 10^6 cells/ml, Gram +, standard strain
From the text: as §1, §2

[23] = test system: Bacteroides fragilis GM 7000; assay: Antibacterial spectrum, MIC; conditions: GM7000
[24] = test system: Clostridium perfringens KYA 13123; assay: microbe, parasite or virus in culture; conditions: KYA13123
[25] = test system: Pseudomonas aeruginosa V-1; assay: Antibacterial spectrum, MIC; conditions: V1
gram-positive bacteria = conditions: background art; cited from earlier work
gram-negative bacteria = conditions: background art; CI-934 compared with Norfloxacin and Ciprofloxacin; cited from earlier work

SMILES: CC1CN(c2c(F)cc3c(=O)c(C(=O)O)cn(C4CC4)c3c2Br)CCN1.Cl (centres unmarked) [Exp. 18, 8-Bromo-1-cyclopropyl-6-fluoro-1,4-dihydro-7-(3-methyl-1-piperazinyl)-4-oxo-3-quinolinecarboxylic acid hydrochloride]
- MIC (Pst. micros UPI 5464-1): 0.39 µg/mL
- MIC [1]: 0.2 µg/mL
- MIC [2]: 0.1 µg/mL
- MIC (S. epidermidis IID 866): 0.2 µg/mL
- MIC [3]: 0.025 µg/mL
- MIC [4]: 0.05 µg/mL
- MIC [5]: 0.05 µg/mL
- MIC (P. mirabilis IID 994): 0.025 µg/mL
- MIC [6]: 0.05 µg/mL
- MIC (B. distasonis 8503): 1.56 µg/mL
- MIC (E. faecalis IID 682): 0.78 µg/mL
- MIC [7]: 0.1 µg/mL
- MIC [8]: 0.05 µg/mL
- MIC (B. fragilis 25285): 0.39 µg/mL
- MIC [9]: 0.1 µg/mL
- MIC (B. fragilis 0558): 0.39 µg/mL
- MIC [10]: 0.78 µg/mL
- MIC [11]: 0.0125 µg/mL
- MIC (Shigella sonnei IID 969): 0.025 µg/mL
- MIC (K. pneumoniae 1-220S): 0.1 µg/mL
- MIC [12]: 0.78 µg/mL
- MIC (S. pneumoniae IID 552): 0.78 µg/mL
- MIC (E. coli ATCC l0536): 0.025 µg/mL
- MIC [13]: 0.39 µg/mL
- MIC [14]: 1.56 µg/mL
- MIC (S. pyogenes IID 692): 0.78 µg/mL
- MIC [15]: 0.1 µg/mL
- MIC (P. aeruginosa IFO 12689): 3.13 µg/mL
- MIC [16]: 1.56 µg/mL
- MIC [17]: 6.25 µg/mL
- MIC [18]: 0.39 µg/mL
- MIC (C. ramosum): 6.25 µg/mL
- MIC [19]: 0.39 µg/mL
- MIC [20]: 0.39 µg/mL
- MIC [21]: 0.1 µg/mL
- MIC (F. varium KYA 8501): 3.13 µg/mL
- MIC [22]: 0.05 µg/mL
- MIC [23]: 0.78 µg/mL
- MIC [24]: 0.78 µg/mL
- MIC [25]: 0.39 µg/mL

SMILES: O=C(O)c1cn(C2CC2)c2cc(N3CCNCC3)c(F)cc2c1=O [CPFX, ciprofloxacin, reference compound]
- MIC (Pst. micros UPI 5464-1): 0.2 µg/mL (≈ 0.604 µM)
- MIC [1]: 0.2 µg/mL (≈ 0.604 µM)
- MIC [2]: 0.2 µg/mL (≈ 0.604 µM)
- MIC (S. epidermidis IID 866): 0.2 µg/mL (≈ 0.604 µM)
- MIC [5]: 0.2 µg/mL (≈ 0.604 µM)
- MIC (B. distasonis 8503): 6.25 µg/mL (≈ 18.9 µM)
- MIC (B. fragilis 25285): 6.25 µg/mL (≈ 18.9 µM)
- MIC (B. fragilis 0558): 3.13 µg/mL (≈ 9.45 µM)
- MIC [11]: ≤ 0.0063 µg/mL
- MIC (Shigella sonnei IID 969): 0.0063 µg/mL (≈ 0.019 µM)
- MIC (K. pneumoniae 1-220S): 0.05 µg/mL (≈ 0.151 µM)
- MIC [20]: 0.2 µg/mL (≈ 0.604 µM)
- MIC [23]: 6.25 µg/mL (≈ 18.9 µM)
- MIC [25]: 0.05 µg/mL (≈ 0.151 µM)

SMILES: CCNCC1CCN(c2c(F)cc3c(=O)c(C(=O)O)cn(CC)c3c2F)C1 (centres unmarked) [CI-934, 1-ethyl-7-[3-[(ethylamino)methyl]-1-pyrrolidinyl]-6,8-difluoro-1,4-dihydro-4-oxo-3-quinolinecarboxylic acid]
- activity against gram-positive bacteria (gram-positive bacteria): relatively strong activity against gram-positive bacteria
- activity against gram-negative bacteria (gram-negative bacteria): weaker activity against gram-negative bacteria than such known compounds as Norfloxacin and Ciprofloxacin
